Patent US4550186A, “Binuclear copper (II) carboxylates formed from amine-carboxyboranes” (Duke University, priority 1983, dated 1985)

Biological target: T1, transfer ribonucleic acid polymerase (Mus musculus, UniProt B2RXC6+P59470)
T1 sequence (B2RXC6 1-1390): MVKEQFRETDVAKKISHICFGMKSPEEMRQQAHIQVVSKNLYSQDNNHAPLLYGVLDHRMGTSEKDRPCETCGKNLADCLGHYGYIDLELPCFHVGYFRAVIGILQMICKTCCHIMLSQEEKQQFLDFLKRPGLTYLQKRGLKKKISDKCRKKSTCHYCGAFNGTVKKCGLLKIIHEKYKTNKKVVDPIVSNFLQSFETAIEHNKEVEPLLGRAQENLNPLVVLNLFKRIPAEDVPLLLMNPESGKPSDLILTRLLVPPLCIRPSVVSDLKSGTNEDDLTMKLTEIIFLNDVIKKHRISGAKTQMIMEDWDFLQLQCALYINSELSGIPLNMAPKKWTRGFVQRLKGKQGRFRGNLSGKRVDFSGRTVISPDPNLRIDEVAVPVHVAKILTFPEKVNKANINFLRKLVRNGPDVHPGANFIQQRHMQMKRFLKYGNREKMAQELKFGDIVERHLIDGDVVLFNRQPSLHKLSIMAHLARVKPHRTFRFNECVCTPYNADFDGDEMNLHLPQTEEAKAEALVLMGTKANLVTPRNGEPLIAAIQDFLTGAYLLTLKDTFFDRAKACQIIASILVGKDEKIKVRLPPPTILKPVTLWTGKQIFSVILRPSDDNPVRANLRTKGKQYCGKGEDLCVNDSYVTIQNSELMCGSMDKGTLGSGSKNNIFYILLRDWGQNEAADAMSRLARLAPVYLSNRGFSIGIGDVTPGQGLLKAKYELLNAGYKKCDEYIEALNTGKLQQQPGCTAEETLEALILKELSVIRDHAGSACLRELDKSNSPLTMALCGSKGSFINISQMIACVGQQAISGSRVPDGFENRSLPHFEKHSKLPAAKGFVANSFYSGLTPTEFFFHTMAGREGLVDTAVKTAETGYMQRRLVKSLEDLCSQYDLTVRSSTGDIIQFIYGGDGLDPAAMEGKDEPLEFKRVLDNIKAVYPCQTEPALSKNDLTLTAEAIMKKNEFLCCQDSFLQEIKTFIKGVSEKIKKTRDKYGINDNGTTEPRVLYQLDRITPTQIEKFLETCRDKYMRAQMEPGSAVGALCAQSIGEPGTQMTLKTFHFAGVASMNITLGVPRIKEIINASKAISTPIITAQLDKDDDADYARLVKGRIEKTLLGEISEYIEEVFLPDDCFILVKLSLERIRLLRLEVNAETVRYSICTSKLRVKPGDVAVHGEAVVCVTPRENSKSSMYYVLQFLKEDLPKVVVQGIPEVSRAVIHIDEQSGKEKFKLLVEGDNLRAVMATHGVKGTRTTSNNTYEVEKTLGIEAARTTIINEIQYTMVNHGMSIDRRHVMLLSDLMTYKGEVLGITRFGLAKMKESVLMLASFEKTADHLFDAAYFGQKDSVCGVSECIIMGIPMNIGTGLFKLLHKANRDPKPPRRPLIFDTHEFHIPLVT
T1 sequence (P59470 1-1133): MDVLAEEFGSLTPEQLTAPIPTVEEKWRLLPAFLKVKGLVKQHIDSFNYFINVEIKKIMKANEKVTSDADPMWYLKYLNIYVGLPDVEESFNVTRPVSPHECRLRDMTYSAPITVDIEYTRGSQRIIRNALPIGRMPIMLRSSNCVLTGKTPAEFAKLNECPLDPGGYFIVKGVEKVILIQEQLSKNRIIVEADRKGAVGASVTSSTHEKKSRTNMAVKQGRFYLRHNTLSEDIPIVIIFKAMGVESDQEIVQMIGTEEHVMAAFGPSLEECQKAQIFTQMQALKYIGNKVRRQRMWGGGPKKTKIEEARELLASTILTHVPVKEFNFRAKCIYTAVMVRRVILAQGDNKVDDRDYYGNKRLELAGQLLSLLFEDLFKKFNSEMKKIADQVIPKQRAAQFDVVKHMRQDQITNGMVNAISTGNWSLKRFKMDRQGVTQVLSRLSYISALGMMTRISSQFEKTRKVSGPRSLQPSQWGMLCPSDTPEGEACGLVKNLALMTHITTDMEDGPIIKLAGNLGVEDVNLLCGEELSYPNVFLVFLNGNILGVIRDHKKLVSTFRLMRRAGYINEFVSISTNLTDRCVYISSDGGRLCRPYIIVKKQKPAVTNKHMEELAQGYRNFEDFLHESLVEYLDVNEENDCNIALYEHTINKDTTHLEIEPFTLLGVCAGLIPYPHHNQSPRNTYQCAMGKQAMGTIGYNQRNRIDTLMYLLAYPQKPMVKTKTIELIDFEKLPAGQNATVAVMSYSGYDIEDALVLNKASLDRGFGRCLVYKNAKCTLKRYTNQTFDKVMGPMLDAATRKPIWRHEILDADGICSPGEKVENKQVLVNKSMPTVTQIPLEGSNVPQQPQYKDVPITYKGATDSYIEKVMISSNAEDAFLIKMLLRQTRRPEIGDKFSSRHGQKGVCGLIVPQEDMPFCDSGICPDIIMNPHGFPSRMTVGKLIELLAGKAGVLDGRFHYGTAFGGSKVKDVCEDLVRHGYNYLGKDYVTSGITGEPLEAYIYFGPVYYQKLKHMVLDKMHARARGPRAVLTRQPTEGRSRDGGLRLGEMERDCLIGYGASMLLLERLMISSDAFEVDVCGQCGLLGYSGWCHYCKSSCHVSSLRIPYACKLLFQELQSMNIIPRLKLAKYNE
Test: In vivo transfer ribonucleic acid polymerase activity
Experimental: CF1 male mice (~30 g) were implanted with 2×10^6 Ehrlich ascites tumor cells, intraperitoneally on Day 0. Compound I was suspended by homogenation in 0.05% polysorbate.80-water and administered intraperitoneally at 10 and 20 mg/kg for 9 days to determine its effectiveness for inhibition of tumor growth. Mice were sacrificed on Day 10, and the ascites fluid was collected from the peritoneal cavity. The volume and ascrit (packed cell volume) were determined for each animal and the percent inhibition of tumor growth was calculated. For the metabolic studies, mice were treated on Days 8 and 9 with 10 mg/kg of Compound I, intraperitoneally. The animal was sacrificed on Day 10 and the ascites fluid harvested. The in vitro metabolic studies were performed at […] final concentration of Compound I.
In vitro and in vivo nuclear deoxyribonucleic acid polymerase activity was determined on isolated Ehrlich ascites cell nuclei. The incubation was that described by Sawada et al [Can. Res., 34, 3341 (1974)] except that [methyl-^3 H] deoxythymidine triphosphate (82.4 Ci/mmol) was used. The acid insoluble nucleic acid was collected on GF/F filters and counted. Nuclear ribonucleic acid polymerase activities were determined on enzymes isolated from nuclei. […] The acid insoluble ribonucleic acid was collected on nitrocellulose filters and counted.

Substance: {Cu[(CH3)3 N.BH2 CO2 ]2.(CH3)3 N.BH2 COOH} [Compound I]
- transfer ribonucleic acid polymerase activity suppressed: 37%
- Transfer ribonucleic acid polymerase activity (10 mg/kg/day I.P. on Days 8 and 9): 63 ± 7 % Control
